Measurements as given in US10648012B2, “Assay for inhibitors of equilibrative or concentrative nucleoside transporters” (ALBERT EINSTEIN COLLEGE OF MEDICINE OF YESHIVA UNIVERSITY, priority 2013, dated 2020).
Where two headings read alike, the source gives them in different places.

How the values were obtained:
WT yeast = experiment: 5-FUrd IC50 on WT yeast after storage of the 5-FUrd sample; type: cell-based; conditions: Saccharomyces cerevisiae, 90 h
Protocol: (§1) Concentration dependence of 5-FUrd cytotoxic effects on PfENT1-expressing fui1Δ S. cerevisiae and on the parental fui1Δ strain: To determine the dose-response relationship for killing by 5 FUrd, 200 μl cultures in rich media (yeast extract, peptone, 2% dextrose, YPD) were inoculated with 3×10^6 cells/ml of PfENT1-expressing fui1Δ yeast and fui1Δ yeast. The cultures were grown in 96-well microtiter plates at 30° C., without shaking, in the absence of and in the presence of increasing concentrations of 5-FUrd (range 0.1-1,000 μM). After 570 minutes, the OD600 was measured using a BioRad Benchmark Plus microplate reader to determine the extent of cell growth. The OD600 was plotted as a function of drug concentration and the IC50 for 5-FUrd was calculated (FIG. 2). […] Though yeast grow optimally with constant aeration, a similar 5-FUrd IC50 was obtained for PfENT1-expressing fui1Δ yeast whether the plate was shaken continuously at 200 rpm or unshaken for 570 minutes of growth (IC50=9 μM).
5-FUrd Stability. Stability of 5-FUrd under the assay conditions is essential. The assay will involve yeast growth in the presence of 5-FUrd for 10-16 hrs at 30° C. To test 5-FUrd stability a sample of 5-FUrd was split into two aliquots. One was stored at −20° C. and the other at 30° C. for 90 hrs. The 5-FUrd IC50 was then determined for WT yeast as described above. […]

fui1Δ yeast = experiment: 5-FUrd cytotoxicity assay, growth (OD600) of parental fui1Δ yeast; type: cell-based; conditions: Saccharomyces cerevisiae, 9.5 h, read-out: 5-FUrd IC50 for killing
Protocol: as §1

[1] = test system: PfENT1-expressing fui1Δ yeast; experiment: 5-FUrd cytotoxicity assay, growth (OD600) of PfENT1-expressing fui1Δ yeast; type: cell-based; conditions: Saccharomyces cerevisiae, 9.5 h
Protocol: as §1

PfENT1 [2] = biological target: T1, PfENT1 (Plasmodium falciparum, UniProt Q8IDM6); experiment: Inhibition of [3H]-adenine uptake by PfENT1-expressing Xenopus oocytes; type: cell-based; conditions: increasing concentrations of 5-FUrd
T1 sequence (Q8IDM6 1-422): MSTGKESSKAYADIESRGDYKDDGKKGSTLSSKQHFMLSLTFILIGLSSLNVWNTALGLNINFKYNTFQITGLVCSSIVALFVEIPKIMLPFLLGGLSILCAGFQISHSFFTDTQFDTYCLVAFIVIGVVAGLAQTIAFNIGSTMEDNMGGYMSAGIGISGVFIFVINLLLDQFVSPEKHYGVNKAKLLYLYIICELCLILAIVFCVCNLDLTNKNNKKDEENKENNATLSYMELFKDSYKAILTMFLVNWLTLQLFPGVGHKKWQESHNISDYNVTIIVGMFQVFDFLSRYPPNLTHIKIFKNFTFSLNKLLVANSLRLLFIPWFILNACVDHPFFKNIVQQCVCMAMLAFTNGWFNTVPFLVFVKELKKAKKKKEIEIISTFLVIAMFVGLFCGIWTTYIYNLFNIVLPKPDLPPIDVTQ

[3] = 5-FUrd stability under the assay growth conditions; type: physicochemical; conditions: 30° C.
Protocol: 5-FUrd Stability. Stability of 5-FUrd under the assay conditions is essential. The assay will involve yeast growth in the presence of 5-FUrd for 10-16 hrs at 30° C. To test 5-FUrd stability a sample of 5-FUrd was split into two aliquots. One was stored at −20° C. and the other at 30° C. for 90 hrs. The 5-FUrd IC50 was then determined for WT yeast as described above. […] Thus, 5-FUrd is stable under the assay growth conditions for at least 90 hrs. The assay should only require 10-16 hrs of growth, so 5-FUrd is stable on the timescale of the assay.

PfENT1 [4] = biological target: T1, PfENT1; conditions: cited from earlier work

O=c1[nH]c(=O)n([C@@H]2O[C@H](CO)[C@@H](O)[C@H]2O)cc1F [5-FUrd, 5-fluorouridine]
IC50 (WT yeast; 5-FUrd sample stored at 30° C. for 90 hrs, n=3): 60 ± 3 µM | IC50 (WT yeast; 5-FUrd sample stored at −20° C. for 90 hrs): 46 ± 2 µM | IC50 (fui1Δ yeast): 6400 µM | IC50 ([1]; read-out: 5-FUrd IC50, shaken versus unshaken comparison): 9 µM | IC50 ([1]; read-out: 5-FUrd IC50 for killing): 12 µM | Ki (PfENT1 [2]): 1100 µM | time stable under the assay growth conditions [3]: at least 90 hrs

O=[N+]([O-])c1ccc(CSc2ncnc3c2ncn3[C@@H]2O[C@H](CO)[C@@H](O)[C@H]2O)cc1 [p-nitrobenzylthioinosine]
inhibition of PfENT1 (PfENT1 [4]): do not inhibit

OCCN(CCO)c1nc(N2CCCCC2)c2nc(N(CCO)CCO)nc(N3CCCCC3)c2n1 [dipyridamole]
inhibition of PfENT1 (PfENT1 [4]): do not inhibit

COc1cc(C(=O)OCCCN2CCCN(CCCOC(=O)c3cc(OC)c(OC)c(OC)c3)CC2)cc(OC)c1OC [dilazep]
inhibition of PfENT1 (PfENT1 [4]): do not inhibit
